Test results taken from ChEMBL document CHEMBL3297657, “Synthesis and antitumor activities of novel α-aminophosphonate derivatives containing an alizarin moiety” (Eur J Med Chem, 2014).
One block for each molecule: values may come before it.

Key:
[1] = tested on: NCI-H460; test: Induction of apoptosis in human NCI-H460 cells assessed as early apoptotic cells at 8 uM after 48 hrs by Annexin V/propidium iodide staining-based flow cytometry (reference value: 6.8%); format: functional
[2] = tested on: NCI-H460; test: Induction of apoptosis in human NCI-H460 cells assessed as viable cells at 8 uM after 12 hrs by Annexin V/propidium iodide staining-based flow cytometry (reference value: 72.2%); format: functional; conditions: NCI-H460, 12 h, read-out: Activity
[3] = tested on: NCI-H460; test: Induction of apoptosis in human NCI-H460 cells assessed as necrotic cells at 8 uM after 48 hrs by Annexin V/propidium iodide staining-based flow cytometry (reference value: 6.9%); format: functional
[4] = tested on: NCI-H460; test: Cell cycle arrest in human NCI-H460 cells assessed as accumulation at S phase at 10 uM after 48 hrs by Rnase A/propidium iodide staining-based flow cytometry (reference value: 19.41%); format: functional
[5] = tested on: NCI-H460; test: Induction of apoptosis in human NCI-H460 cells assessed as caspase-9 activation after 24 hrs by qRT-PCR analysis; format: functional, cell-based
[6] = tested on: HeLa; test: cells; conditions: Homo sapiens, 48 h
Description: Cytotoxicity against human HeLa cells after 48 hrs by MTT assay

[7] = tested on: NCI-H460; test: Induction of apoptosis in human NCI-H460 cells assessed as viable cells after 24 hrs by Annexin V/propidium iodide staining-based flow cytometry; format: functional, cell-based
[8] = tested on: NCI-H460; test: Cell cycle arrest in human NCI-H460 cells assessed as accumulation at G1 phase at 5 uM after 48 hrs by Rnase A/propidium iodide staining-based flow cytometry (reference value: 46.69%); format: functional
[9] = tested on: NCI-H460; test: Induction of apoptosis in human NCI-H460 cells assessed as viable cells at 8 uM after 48 hrs by Annexin V/propidium iodide staining-based flow cytometry (reference value: 72.2%); format: functional; conditions: NCI-H460, 48 h, read-out: Activity
[10] = tested on: NCI-H460; test: Induction of apoptosis in human NCI-H460 cells assessed as necrotic cells at 8 uM after 24 hrs by Annexin V/propidium iodide staining-based flow cytometry (reference value: 6.9%); format: functional
[11] = tested on: NCI-H460; test: Induction of apoptosis in human NCI-H460 cells assessed as early apoptotic cells at 8 uM after 12 hrs by Annexin V/propidium iodide staining-based flow cytometry (reference value: 6.8%); format: functional
[12] = tested on: NCI-H460; test: Cell cycle arrest in human NCI-H460 cells assessed as accumulation at G2 phase at 20 uM after 48 hrs by Rnase A/propidium iodide staining-based flow cytometry (reference value: 33.9%); format: functional
[13] = tested on: NCI-H460; test: Cell cycle arrest in human NCI-H460 cells assessed as accumulation at G1 phase at 8 uM after 24 hrs by Rnase A/propidium iodide staining-based flow cytometry (reference value: 46.69%); format: functional
[14] = tested on: NCI-H460; test: Cell cycle arrest in human NCI-H460 cells assessed as accumulation at S phase at 5 uM after 48 hrs by Rnase A/propidium iodide staining-based flow cytometry (reference value: 19.41%); format: functional
[15] = tested on: HUVEC; test: Cytotoxicity against HUVEC after 48 hrs by MTT assay; format: cell-based; conditions: Homo sapiens
[16] = tested on: NCI-H460; test: Cell cycle arrest in human NCI-H460 cells assessed as accumulation at G2 phase at 8 uM after 12 hrs by Rnase A/propidium iodide staining-based flow cytometry (reference value: 33.9%); format: functional
[17] = tested on: NCI-H460; test: Induction of apoptosis in human NCI-H460 cells assessed as late apoptotic cells at 10 uM after 24 hrs by Annexin V/propidium iodide staining-based flow cytometry (reference value: 14.1%); format: functional
[18] = tested on: NCI-H460; test: Induction of apoptosis in human NCI-H460 cells assessed as necrotic cells at 5 uM after 24 hrs by Annexin V/propidium iodide staining-based flow cytometry (reference value: 6.9%); format: functional
[19] = tested on: NCI-H460; test: Cell cycle arrest in human NCI-H460 cells assessed as accumulation at G2 phase at 10 uM after 48 hrs by Rnase A/propidium iodide staining-based flow cytometry (reference value: 33.9%); format: functional
[20] = tested on: NCI-H460; test: Induction of apoptosis in human NCI-H460 cells assessed as necrotic cells at 8 uM after 12 hrs by Annexin V/propidium iodide staining-based flow cytometry (reference value: 6.9%); format: functional
[21] = tested on: NCI-H460; test: Induction of apoptosis in human NCI-H460 cells assessed as upregulation of AIF mRNA expression after 24 hrs by qRT-PCR analysis; format: functional, cell-based
[22] = tested on: NCI-H460; test: Induction of apoptosis in human NCI-H460 cells assessed as early apoptotic cells at 8 uM after 24 hrs by Annexin V/propidium iodide staining-based flow cytometry (reference value: 6.8%); format: functional
[23] = tested on: NCI-H460; test: Cell cycle arrest in human NCI-H460 cells assessed as accumulation at G1 phase at 8 uM after 12 hrs by Rnase A/propidium iodide staining-based flow cytometry (reference value: 46.69%); format: functional
[24] = tested on: NCI-H460; test: Cell cycle arrest in human NCI-H460 cells assessed as accumulation at G2 phase at 8 uM after 48 hrs by Rnase A/propidium iodide staining-based flow cytometry (reference value: 33.9%); format: functional
[25] = tested on: NCI-H460; test: Cytotoxicity against human NCI-H460 cells after 48 hrs by MTT assay; format: functional, cell-based; conditions: NCI-H460, 48 h
[26] = tested on: MGC-803; test: Cytotoxicity against human MGC803 cells after 48 hrs by MTT assay; format: functional, cell-based; conditions: MGC-803, 48 h
[27] = tested on: NCI-H460; test: Cell cycle arrest in human NCI-H460 cells assessed as accumulation at G1 phase at 8 uM after 48 hrs by Rnase A/propidium iodide staining-based flow cytometry (reference value: 46.69%); format: functional
[28] = tested on: NCI-H460; test: Induction of apoptosis in human NCI-H460 cells assessed as early apoptotic cells at 20 uM after 24 hrs by Annexin V/propidium iodide staining-based flow cytometry (reference value: 6.8%); format: functional
[29] = tested on: NCI-H460; test: Cell cycle arrest in human NCI-H460 cells assessed as accumulation at G2 phase at 8 uM after 24 hrs by Rnase A/propidium iodide staining-based flow cytometry (reference value: 33.9%); format: functional
[30] = tested on: NCI-H460; test: Induction of apoptosis in human NCI-H460 cells assessed as early apoptotic cells after 24 hrs by Annexin V/propidium iodide staining-based flow cytometry; format: functional, cell-based
[31] = tested on: NCI-H460; test: Induction of apoptosis in human NCI-H460 cells assessed as viable cells at 20 uM after 24 hrs by Annexin V/propidium iodide staining-based flow cytometry (reference value: 72.2%); format: functional; conditions: NCI-H460, 24 h, read-out: Activity
[32] = tested on: NCI-H460; test: Induction of apoptosis in human NCI-H460 cells assessed as late apoptotic cells at 20 uM after 24 hrs by Annexin V/propidium iodide staining-based flow cytometry (reference value: 14.1%); format: functional
[33] = tested on: NCI-H460; test: Induction of apoptosis in human NCI-H460 cells assessed as late apoptotic cells at 8 uM after 24 hrs by Annexin V/propidium iodide staining-based flow cytometry (reference value: 14.1%); format: functional
[34] = tested on: NCI-H460; test: Induction of apoptosis in human NCI-H460 cells assessed as upregulation of TP53 mRNA expression after 24 hrs by qRT-PCR analysis; format: functional, cell-based
[35] = tested on: NCI-H460; test: Induction of apoptosis in human NCI-H460 cells assessed as late apoptotic cells at 5 uM after 24 hrs by Annexin V/propidium iodide staining-based flow cytometry (reference value: 14.1%); format: functional
[36] = tested on: HepG2; test: cells; conditions: Homo sapiens, HepG2, 48 h
Description: Cytotoxicity against human HepG2 cells after 48 hrs by MTT assay

IC50 [6]: 21.1 µM | IC50 [36]: 21 µM
SMILES: CCOP(=O)(OCC)C(NC(=O)C(C)Oc1ccc2c(c1O)C(=O)c1ccccc1C2=O)c1ccccc1F (stereo not drawn)
Activity [1]: 56.4% | viability at 8 µM [2]: 61.3% | Activity [3]: 3.2% | Activity [4]: 13.42% | Activity [5]: Dose-dependent effect | Activity [7]: Dose-dependent effect | Activity [8]: 64.52% | viability at 8 µM [9]: 31.1% | Activity [10]: 1.9% | Activity [11]: 30.3% | Activity [12]: 20.06% | Activity [13]: 60.05% | Activity [14]: 12.34% | IC50 [15]: 21 µM | Activity [16]: 29.57% | Activity [17]: 6.8% | Activity [18]: 0.3% | Activity [19]: 20.77% | Activity [20]: 0.5% | Activity [21]: Dose-dependent effect | Activity [22]: 38.8% | Activity [23]: 55.78% | Activity [24]: 23.61% | IC50 [25]: 3.8 µM | IC50 [26]: 18.8 µM | Activity [27]: 65.52% | Activity [28]: 55.1% | Activity [29]: 23.05% | Activity [30]: Dose-dependent effect | viability at 20 µM [31]: 33.6% | Activity [32]: 9.8% | Activity [33]: 13% | Activity [34]: Dose-dependent effect | Activity [35]: 9.2%

IC50 [6]: 28.2 µM | IC50 [36]: 88.2 µM
SMILES: CCOP(=O)(OCC)C(NC(=O)C(C)Oc1ccc2c(c1O)C(=O)c1ccccc1C2=O)c1ccccc1OC (stereo not drawn)
Activity [1]: 50.2% | viability at 8 µM [2]: 71.9% | Activity [3]: 3.2% | Activity [4]: 9.84% | Activity [5]: Dose-dependent effect | Activity [7]: Dose-dependent effect | Activity [8]: 56.85% | viability at 8 µM [9]: 28.2% | Activity [10]: 2.5% | Activity [11]: 21.9% | Activity [12]: 23.09% | Activity [13]: 64.92% | Activity [14]: 8.74% | IC50 [15]: > 50 µM | Activity [16]: 27.54% | Activity [17]: 17.8% | Activity [18]: 2.8% | Activity [19]: 29.38% | Activity [20]: 0.7% | Activity [21]: Dose-dependent effect | Activity [22]: 38.9% | Activity [23]: 56.84% | Activity [24]: 22.97% | IC50 [25]: 9.8 µM | IC50 [26]: 10.1 µM | Activity [27]: 68.16% | Activity [28]: 34.7% | Activity [29]: 21.99% | Activity [30]: Dose-dependent effect | viability at 20 µM [31]: 30.7% | Activity [32]: 30.7% | Activity [33]: 11.1% | Activity [34]: Dose-dependent effect | Activity [35]: 8.6%

IC50 [6]: 15 µM | IC50 [36]: 40.5 µM
SMILES: CCOP(=O)(OCC)C(NC(=O)C(C)Oc1ccc2c(c1O)C(=O)c1ccccc1C2=O)c1cccc2ccccc12 (stereo not drawn)
Activity [1]: 54.9% | viability at 8 µM [2]: 70.9% | Activity [3]: 3.7% | Activity [4]: 15.41% | Activity [5]: Dose-dependent effect | Activity [7]: Dose-dependent effect | Activity [8]: 57.2% | viability at 8 µM [9]: 26.6% | Activity [10]: 2.4% | Activity [11]: 19.9% | Activity [12]: 21.34% | Activity [13]: 66.33% | Activity [14]: 17.02% | IC50 [15]: 40.5 µM | Activity [16]: 34.32% | Activity [17]: 18.6% | Activity [18]: 1.4% | Activity [19]: 24.74% | Activity [20]: 0.9% | Activity [21]: Dose-dependent effect | Activity [22]: 36.6% | Activity [23]: 65.57% | Activity [24]: 31.5% | IC50 [25]: 6.83 µM | IC50 [26]: 3.77 µM | Activity [27]: 68.09% | Activity [28]: 38.8% | Activity [29]: 32.56% | Activity [30]: Dose-dependent effect | viability at 20 µM [31]: 43.4% | Activity [32]: 16.4% | Activity [33]: 13.5% | Activity [34]: Dose-dependent effect | Activity [35]: 16.3%
